One compound from article PMC9605374 (Marine Drugs, 2022) can be followed below.

In the experiment the test system is 22Rv1 cells. The experiment in a line: Annexin-V-FITC/PI double staining, flow cytometry. The experiment is classed as cell-based, human. How it is done: Figure 4 Investigation of the proapoptotic activity of NB. Flow cytometry analysis of 22Rv1 cells after 48 h of treatment. (A) Cell cycle and DNA fragmentation analysis. Treated cells were stained with PI and analyzed using a flow cytometry technique. Sub-G1 population was assumed to be apoptotic cells containing fragmentated DNA. (B) Analysis of phosphatidylserine externalization. Treated cells were double-stained with annexin-V-FITC and PI and analyzed using the flow cytometry technique. Cells of the low left quadrant (annexin-V-FITC^−/PI^−) were considered as alive cells. The Cell Quest Pro v.5.2.1 software (BD Bioscience, San Jose, CA, USA) was used to analyze and quantify the FACS data. Cells treated for 48 h with 10 µM of anisomycin were used as a positive control. Number of replicates n = 3. Statistical significance: * p < 0.05 (ANOVA). […]
Externalization of phosphatidylserine is a distinct marker of apoptotic cell death that can be detected by flow cytometry using annexin-V-FITC and propidium iodide (PI) double staining. […] Cells were harvested utilizing trypsin, stained with annexin-V-FITC and propidium iodide, and analyzed using FACS Calibur (BD Bioscience, San Jose, CA, USA).
A general note: A flow cytometer gives signals particle by particle.

`COc1ccc(C2SSC34CC5(O)C(Cl)C=CC(O)C5ON3C(=O)C2N(C)C4=O)c(O)c1OC` (centres unmarked) [NB, N-methylpretrichodermamide B]: the phosphatidylserine externalization result (22Rv1, 48 h) is “caused DNA fragmentation and phosphatidylserine externalization”. In addition, where the note is “22Rv1, zVAD 100 µM 1 h pretreatment, 48 h”, the “effect of pretreatment with pan-caspase inhibitor zVAD on drug-induced cell death” value was “could not significantly inhibit”.
